For data set [1], the target named is T1, Wistar rat heart PBR (Rattus norvegicus, UniProt P16257).
T1 construct: from tissue; host or cells: Wistar rat heart
The data set can be described thus: In vitro potency assay, competition binding against [3H]PK-11195, rat heart PBR. As for the experimental part:
(§1) Affinity for PBR was screened using a method adapted from Le Fur et al (Life Sci. 1983; USA 33: 449-57). Non-radioactive analogues of the PET tracer of the invention and the associated racemate were tested. Each test compound (dissolved in 50 mM Tris-HCl, pH 7.4, 10 mM MgCl2 containing 1% DMSO) competed for binding to either Wistar rat heart PBR or human PBR against 0.3 nM [^3H] PK-11195. The reaction was carried out in 50 mM Tris-HCl, pH 7.4 10 mM MgCl2 for 15 minutes at 25° C.

The target of data set [2] is human PBR (Homo sapiens, UniProt P30536). Briefly: In vitro potency assay, competition binding against [3H]PK-11195, human PBR. As for the experimental part:
as §1

In data set [3] the target is T2, PBR (Rattus norvegicus, UniProt P16257).
T2 construct: Various tissues including brain stem and olfactory bulb were removed from the animals; from tissue; host or cells: Wistar rat, in vivo tissues (A7); frozen sections of brain stem and olfactory bulb (A8)
Briefly: In vivo blocking assay (biodistribution after pre-administration of PK11195 or non-radioactive analogue). The arrangement: species or system Wistar rats. As to conditions: 30 min after injection; for Blood (% of vehicle), PK11195 block / Lungs (% of vehicle), PK11195 block / Muscle (% of vehicle), PK11195 block / Olfactory bulb uptake (% of vehicle), PK11195 block / Striata uptake (% of vehicle), PK11195 block: PK11195 3 mg/kg 5 min before tracer; for Blood (% of vehicle), Non-radioactive Analogue block / Lungs (% of vehicle), Non-radioactive Analogue block / Muscle (% of vehicle), Non-radioactive Analogue block / Olfactory bulb uptake (% of vehicle), Non-radioactive Analogue block / Striata uptake (% of vehicle), Non-radioactive Analogue block: non-radioactive analogue 3 mg/kg 5 min before tracer. As for the experimental part:
The in vivo biodistributions of the PET tracer of the invention compared with its associated racemate were tested after pre-administration of their respective non-radioactive analogues, or pre-administration of the known PBR-specific ligand, PK11195.
PK11195 or a non-radioactive analogue (both at 3 mg/kg) was administered 5 min before the radiolabelled test compound.

Data set [4] concerns the target T2, PBR. Briefly: Facial nerve axotomy model of inflammation, in vitro autoradiography of tissue sections. The format is binding, Wistar rats. The following applies: for Naïve brain stem % specific binding, Unlabelled ligand / Olfactory bulb % specific binding, Unlabelled ligand / FNA brain stem % specific binding, Unlabelled ligand: blocked with non-radioactive PET tracer at 1 μM; for Naïve brain stem % specific binding, PK11195 / Olfactory bulb % specific binding, PK11195 / FNA brain stem % specific binding, PK11195: blocked with non-radioactive PK11195 at 1 μM; for FNA brain stem % specific binding, Unlabelled ligand / FNA brain stem % specific binding, PK11195: facial nerve axotomy. As for the experimental part:
Binding to a focal site of neuroinflammation was tested by autoradiography.
Male Wistar rats (200-300 g) were either used naïve, or underwent a facial nerve axotomy according to the procedure described by Graeber and Kreutzberg (J Neurocytol 1986; 15: 363-373). Various tissues including brain stem and olfactory bulb were removed from the animals and rapidly frozen in isopentane then stored at −70° C. until use. Tissues were sectioned (12 μm) and thaw-mounted onto Superfrost Plus slides. Slides were stored at −70° C. until use.
The slides were air dried prior to pre-incubation in Tris-HCl buffer (170 mM, pH 7.4) for 5 min at room temperature. 1000-fold excess of non-radioactive PK11195 at 1 μM, or non-radioactive PET tracer of the invention at 1 μM was added prior to incubation with Tris-HCl buffer (170 mM, pH 7.4) containing […] of test compound for 60 minutes. The reaction was then terminated by rinsing the sections two times for 5 mins each in ice-cold buffer (Tris-HCl, 170 mM, pH 7.4) and then the slides were dipped briefly in distilled water to rinse. Next the slides were dried in air and exposed to x-ray film. When exposing to x-ray film, a reference standard was included, for in vitro autoradiography a reference sample (20μ) was taken from the solution and placed on filter paper (taped onto a glass) and exposed together with the sections. The film was exposed for 24 hours and the data were analysed by drawing regions of interest around the specific anatomic structures as well as around the blocked samples, references and background using MCID software using a density gradient scale as a calibration curve adjusted to the reference sample.

The nature of data set [5]: In vivo biodistribution. The following applies: for OB:Str 30 min: olfactory bulb to striata ratio; for OB:Str 30 min / OB 30 min: 30 min after injection; for OB 30 min: olfactory bulb, i.v.; for OB 30 min / Brain 2 min: rat; for Brain 2 min: i.v. tail vein, 2 min after injection.
Experimental: Adult male Wistar rats (200-300 g) were injected with 1-3 MBq of test compound via the lateral tail vein. At 2, 10, 30 or 60 min (n=3) after injection, rats were euthanised and tissues or fluids were sampled for radioactive measurement on a gamma counter.
A short description of data set [6]: In vivo metabolism study (% parent in brain and plasma by HPLC). As to conditions: for Brain (% parent) 10 min pi / Brain (% parent) 30 min pi / Brain (% parent) 60 min pi: rat brain; for Brain (% parent) 10 min pi / Plasma (% parent) 10 min pi: 10 min post injection; for Brain (% parent) 30 min pi / Plasma (% parent) 30 min pi: 30 min post injection; for Brain (% parent) 60 min pi / Plasma (% parent) 60 min pi: 60 min post injection; for Plasma (% parent) 10 min pi / Plasma (% parent) 30 min pi / Plasma (% parent) 60 min pi: rat plasma.
Experimental: The amount of brain or plasma activity that was due to parent test compound was tested up to 1 hour post-administration.
Adult male Wistar rats (150-200 g) were injected with approximately 20 MBq of test compound. Brain and plasma samples were analysed by HPLC at 10, 30 and 60 minutes pi.

Data set [7] can be described thus: In vitro chiral stability assay in human plasma. The format is in vitro ADME. As to conditions: non-radioactive; 37° C., 4 hours; chiral HPLC. As for the experimental part: (§2) The non-radioactive PET tracer of the invention obtained according to Example 2 was incubated (37° C.) in human plasma or in rat liver S9 fraction up to 4 hours. The enantiomers were extracted from the biological material by precipitation of proteins. The solid precipitate was separated from the liquid phase, which was evaporated to dryness. The dry residue was dissolved in acetonitrile.
(§3) A Dionex Ultimate 3000 HPLC system consisting of two pumps (micro pump LPG-3000 and Ultimate 3000 pump), a UV/visible detector, an auto sampler and two switching valves was applied in this study. One switching valve was connecting the two pumps and the auto sampler. This set-up made it possible to use either of the pumps to inject into the column. The pump used for injection was connected to the SPE column only. After the injection and elution the SPE column was washed using the injection pump. The system was made ready for a new injection while the chiral analysis was ongoing.
(§4) The other switching valve connected the analytical column and the SPE column. […]
(§5) Elution from the SPE column and separation: The elution started using mobile phase mixture of 10% MeCN and 90% 10 mM ammonium acetate. […] The analytical column was washed for 3 min using 70% MeCN/MeOH and then stabilized at 10% MeCN/MeOH to make the separation system ready for the next injection. […]

Data set [8] is described as follows: In vitro chiral stability assay in rat liver S9 fraction. It is filed as in vitro ADME. The following applies: non-radioactive; 37° C., 4 hours; chiral HPLC. As for the experimental part: as §2, §3, §4, §5
Setting [9] is: non-radioactive analogues tested, against 0.3 nM [3H]PK-11195, 15 minutes at 25° C., read-out: Rat Heart Ki.
[10] abbreviates: non-radioactive analogues tested, against 0.3 nM [3H]PK-11195, 15 minutes at 25° C., read-out: Human Ki.

Usually Ki stands for the equilibrium dissociation constant of an inhibitor or competing ligand from its target.

Each structure is given as a SMILES string. Read-outs that look alike come from different tables or passages of the source.

Chain of human PBR (P30536 whole entry): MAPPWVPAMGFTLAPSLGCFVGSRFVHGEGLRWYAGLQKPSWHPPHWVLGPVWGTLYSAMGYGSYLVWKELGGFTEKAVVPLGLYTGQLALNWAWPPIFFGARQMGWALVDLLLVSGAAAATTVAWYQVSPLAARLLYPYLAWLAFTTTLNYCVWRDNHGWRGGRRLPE

As to `CCN(CC)C(=O)C1CCCc2c1c1c(OC)cccc1n2CC[18F]` (racemic) [Racemate], the Ki in data set [1] amounted to 1.47 nM. Also, the affinity in data set [2] corresponds to a Ki of 11.5 nM. Moreover, in data set [3], the “Blood (% of vehicle), PK11195 block” value is 247 % of vehicle; the “Lungs (% of vehicle), PK11195 block” value was 13 % of vehicle; the “Muscle (% of vehicle), PK11195 block” value was 90 % of vehicle; the “Olfactory bulb uptake (% of vehicle), PK11195 block” value was 37 % of vehicle. In data set [3], the “Striata uptake (% of vehicle), PK11195 block” value was 114 % of vehicle; the “Blood (% of vehicle), Non-radioactive Analogue block” value was 289 % of vehicle; the “Lungs (% of vehicle), Non-radioactive Analogue block” value is 11 % of vehicle; the “Muscle (% of vehicle), Non-radioactive Analogue block” value was 140 % of vehicle. In addition, in data set [3], the “Olfactory bulb uptake (% of vehicle), Non-radioactive Analogue block” value is 59 % of vehicle and the “Striata uptake (% of vehicle), Non-radioactive Analogue block” value is 124 % of vehicle. Further, in data set [4], the “Naïve brain stem % specific binding, Unlabelled ligand” value came to 21 % specific binding; the “Olfactory bulb % specific binding, Unlabelled ligand” value was 59 % specific binding; the “Naïve brain stem % specific binding, PK11195” value worked out at 13 % specific binding; the “Olfactory bulb % specific binding, PK11195” value worked out at 67 % specific binding. In addition, in data set [4], the “FNA brain stem % specific binding, Unlabelled ligand” value is on record as 72 % specific binding and the “FNA brain stem % specific binding, PK11195” value is recorded as 69 % specific binding. For the same compound, in data set [5], the “OB:Str 30 min” value was determined as 3.0, the “OB 30 min” value was 0.36 % ID/g and the “Brain 2 min” value came to 0.52 % ID/g. Moreover, in data set [6], the “Brain (% parent) 10 min pi” value is 100 ± 0 % parent, the “Brain (% parent) 30 min pi” value was determined as 97 ± 1 % parent, the “Brain (% parent) 60 min pi” value amounted to 91 ± 2 % parent and the “Plasma (% parent) 10 min pi” value came out at 81 ± 4 % parent. In data set [6], the “Plasma (% parent) 30 min pi” value amounted to 49 ± 12 % parent and the “Plasma (% parent) 60 min pi” value came out at 28 ± 1 % parent.

With `CCN(CC)C(=O)[C@@H]1CCCc2c1c1c(OC)cccc1n2CC[18F]` [Alternative Enantiomer], in data set [1] (setting [9]), the Ki stood at 3.87 nM. Also, the Ki in data set [2] (setting [10]) turned out to be 14.1 nM. Further, in data set [5], the “OB:Str 30 min” value was found to be 2.9, the “OB 30 min” value is listed as 0.23 % ID/g and the “Brain 2 min” value is 0.53 % ID/g.

`CCN(CC)C(=O)[C@H]1CCCc2c1c1c(OC)cccc1n2CC[18F]` [PET Tracer of Invention]: the Ki in data set [1] (setting [9]) was 0.87 nM. In addition, the Ki in data set [2] (setting [10]) is 9.17 nM. Also, the “racemisation after incubation in human plasma” value in data set [7] is listed as “No racemisation was observed”. Further, the “racemisation after incubation in rat liver S9 fraction” value in data set [8] is “did not racemise”. In data set [3], the “Blood (% of vehicle), PK11195 block” value is recorded as 289 % of vehicle; the “Lungs (% of vehicle), PK11195 block” value was 14 % of vehicle; the “Muscle (% of vehicle), PK11195 block” value is reported as 131 % of vehicle; the “Olfactory bulb uptake (% of vehicle), PK11195 block” value is on record as 43 % of vehicle. Besides, in data set [3], the “Striata uptake (% of vehicle), PK11195 block” value is 117 % of vehicle; the “Blood (% of vehicle), Non-radioactive Analogue block” value is listed as 253 % of vehicle; the “Lungs (% of vehicle), Non-radioactive Analogue block” value is 12 % of vehicle; the “Muscle (% of vehicle), Non-radioactive Analogue block” value is listed as 143 % of vehicle. Besides, in data set [3], the “Olfactory bulb uptake (% of vehicle), Non-radioactive Analogue block” value was 37 % of vehicle and the “Striata uptake (% of vehicle), Non-radioactive Analogue block” value is 114 % of vehicle. Moreover, in data set [4], the “Naïve brain stem % specific binding, Unlabelled ligand” value came to 70 % specific binding; the “Olfactory bulb % specific binding, Unlabelled ligand” value amounted to 77 % specific binding; the “Naïve brain stem % specific binding, PK11195” value was determined as 70 % specific binding; the “Olfactory bulb % specific binding, PK11195” value stood at 75 % specific binding. Moreover, in data set [4], the “FNA brain stem % specific binding, Unlabelled ligand” value was determined as 86 % specific binding and the “FNA brain stem % specific binding, PK11195” value stood at 86 % specific binding. In addition, in data set [5], the “OB:Str 30 min” value amounted to 3.2, the “OB 30 min” value is listed as 0.45 % ID/g and the “Brain 2 min” value stood at 0.53 % ID/g. Besides, in data set [6], the “Brain (% parent) 10 min pi” value was found to be 98 ± 2 % parent, the “Brain (% parent) 30 min pi” value was 96 ± 2 % parent, the “Brain (% parent) 60 min pi” value turned out to be 94 ± 2 % parent and the “Plasma (% parent) 10 min pi” value was 70 ± 18 % parent. In addition, in data set [6], the “Plasma (% parent) 30 min pi” value was found to be 41 ± 16 % parent and the “Plasma (% parent) 60 min pi” value is 21 ± 5 % parent.
